Assay results from ChEMBL document CHEMBL1201862, “PubChem BioAssay data set” (2004).
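Step 1: Grow cells in 96-well plates. Step 2: Expose to compound for 48 hours at 5 concentrations. Step 3: Interpolate endpoints linearly; if unreached, use highest concentration. GI50 marks 50% less growth.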 Activity calls are given as the source filed them. No stated cut-off is given here; in the data, active = GI50 up to about 1.1 µM and inactive = higher.

Columns and labels:
Experiment in all cases: DTP human tumour cell line panel, 48 h
CCRF-CEM = system: CCRF-CEM
EKVX = system: EKVX
HCC 2998 = system: HCC 2998
HOP-62 = system: HOP-62
IGROV-1 = system: IGROV-1
MDA-MB-435 = system: MDA-MB-435
NCI-H226 = system: NCI-H226
OVCAR-3 = system: OVCAR-3
SF-268 = system: SF-268
SN12C = system: SN12C
SNB-19 = system: SNB-19
SNB-75 = system: SNB-75
T47D = system: T47D
TK-10 = system: TK-10
U-251 = system: U-251
LOX IMVI = system: LOX IMVI
OVCAR-5 = system: OVCAR-5
A498 = system: A498
SK-MEL-2 = system: SK-MEL-2

| Compound | GI50 (CCRF-CEM) | GI50 (EKVX) | GI50 (HCC 2998) | GI50 (HOP-62) | GI50 (IGROV-1) | GI50 (MDA-MB-435) | GI50 (NCI-H226) | GI50 (OVCAR-3) | GI50 (SF-268) | GI50 (SN12C) | GI50 (SNB-19) | GI50 (SNB-75) | GI50 (T47D) | GI50 (TK-10) | GI50 (U-251) | GI50 (LOX IMVI) | GI50 (OVCAR-5) | GI50 (A498) | GI50 (SK-MEL-2) |
| --- | --- | --- | --- | --- | --- | --- | --- | --- | --- | --- | --- | --- | --- | --- | --- | --- | --- | --- | --- |
| COCCN1C(=O)C2c3[nH]c4ccccc4c3C3CCC(C(C)(C)C)CC3C2C1=O (stereo not given) | 22.6 µM (inactive) | 17.9 µM (inactive) | 19.3 µM (inactive) | 18.6 µM (inactive) | 23.2 µM (inactive) | 18.7 µM (inactive) | 22.1 µM (inactive) | 17.5 µM (inactive) | 19.2 µM (inactive) | 17.1 µM (inactive) | 19.1 µM (inactive) | 17.5 µM (inactive) | 20 µM (inactive) | > 10 µM (inactive) | 15.5 µM (inactive) |  |  |  |  |
| NC1CC=C(COC(=O)C(O)(c2ccccc2)C2CC2)CC1 (stereo not given) |  | > 100 µM (inactive) | > 100 µM (inactive) | > 100 µM (inactive) | > 100 µM (inactive) |  | > 100 µM (inactive) | > 100 µM (inactive) | > 100 µM (inactive) | > 100 µM (inactive) | > 100 µM (inactive) | > 100 µM (inactive) | > 100 µM (inactive) | > 100 µM (inactive) | > 100 µM (inactive) | > 100 µM (inactive) | > 100 µM (inactive) |  |  |
| CN(C)CCCNC(=O)c1cc(NC(=O)c2cc(NC(=O)CCCn3c4ccccc4c4ccccc43)cn2C)cn1C | 7.71 µM (inactive) | 15.3 µM (inactive) | 5.52 µM (inactive) | 13.6 µM (inactive) | 26.5 µM (inactive) | 9.29 µM (inactive) |  | 13.4 µM (inactive) | 13.5 µM (inactive) | 14.3 µM (inactive) | 10.5 µM (inactive) | 14.4 µM (inactive) | 7.03 µM (inactive) | 12.4 µM (inactive) | 11.4 µM (inactive) | 6.59 µM (inactive) | 20.1 µM (inactive) | 19.3 µM (inactive) | 24.8 µM (inactive) |
| CCN(CC)c1ccc2c(c1)OC(=O)C(c1nnc(-c3ccc([N+](=O)[O-])cc3)o1)C2 (stereo not given) | 34.2 µM (inactive) | 10.2 µM (inactive) | > 100 µM (inactive) | > 100 µM (inactive) | > 100 µM (inactive) | > 100 µM (inactive) | > 100 µM (inactive) | > 100 µM (inactive) | 90.4 µM (inactive) |  | > 100 µM (inactive) | > 100 µM (inactive) |  | > 100 µM (inactive) | > 100 µM (inactive) | > 100 µM (inactive) | > 100 µM (inactive) | > 100 µM (inactive) | > 100 µM (inactive) |
| CCOC(=O)c1ccc(Nc2nc3ccccc3n3cccc23)cc1 | 0.0217 µM (active) | 31.3 µM (inactive) | 35 µM (inactive) | 25.7 µM (inactive) | 46.6 µM (inactive) | 3.27 µM (inactive) |  | 70 µM (inactive) | 35.7 µM (inactive) | 12.8 µM (inactive) | 52.5 µM (inactive) | 22.2 µM (inactive) | 9.57 µM (inactive) | 34.8 µM (inactive) | 28.4 µM (inactive) | 50.2 µM (inactive) | > 100 µM (inactive) | 46 µM (inactive) | 34.6 µM (inactive) |
| CCNC(=O)C1CCCN1C(=O)C(CCCN=C(N)N)NC(=O)C(CC(C)C)NC(=O)C(Cc1c[nH]c2ccccc12)NC(=O)C(Cc1ccc(O)cc1)NC(=O)C(CO)NC(=O)C(Cc1c[nH]c2ccccc12)NC(=O)C(Cc1c[nH]cn1)NC(=O)C1CCC(=O)N1 (stereo not given) | > 100 µM (inactive) | > 100 µM (inactive) | > 100 µM (inactive) | > 100 µM (inactive) | > 100 µM (inactive) | > 100 µM (inactive) | > 100 µM (inactive) | > 100 µM (inactive) | > 100 µM (inactive) | > 100 µM (inactive) | > 100 µM (inactive) | > 100 µM (inactive) |  | > 100 µM (inactive) | > 100 µM (inactive) |  | > 100 µM (inactive) | > 100 µM (inactive) | > 100 µM (inactive) |
| CC1CCCN(CP(=O)(c2ccccc2)c2ccccc2)C1 (stereo not given) |  | > 100 µM (inactive) | 52.5 µM (inactive) | > 100 µM (inactive) | > 100 µM (inactive) | > 100 µM (inactive) | > 100 µM (inactive) | 78.2 µM (inactive) | > 100 µM (inactive) | > 100 µM (inactive) | > 100 µM (inactive) | > 100 µM (inactive) |  | > 100 µM (inactive) | > 100 µM (inactive) | > 100 µM (inactive) | > 100 µM (inactive) | > 100 µM (inactive) | > 100 µM (inactive) |
| N#CC(NNC(=O)c1ccccc1O)c1ccc(O)cc1 (stereo not given) | 4.93 µM (inactive) |  |  | 22.5 µM (inactive) | 3.96 µM (inactive) |  | 3.21 µM (inactive) | 9.55 µM (inactive) | 1.79 µM (inactive) | 18.6 µM (inactive) |  | 1.24 µM (inactive) |  | 39.5 µM (inactive) | 3.8 µM (inactive) | 5.83 µM (inactive) | 17.6 µM (inactive) |  | 2.67 µM (inactive) |
